Assay results taken from patent publication US5436254A, “Carbostyril derivatives” (Otsuka Pharmaceutical Company, Ltd., priority 1989, dated 1995).
Structures can show the parent of a compound that is named as a salt. Where two headings read alike, the source gives them in different places.

Target: V1 receptor (Rattus norvegicus, UniProt P30560)
Assay: biochemical
Assay type: binding
Experimental: Experiment 1: V1 receptor binding assay
Using rat liver plasma membrane preparations prepared according to Ichihara's method [cf: Akira Ichihara, J. Bio. Chem., 258 9283 (1983)], the plasma membrane (50000 dpm, 2×10^-10 M) of [H]^3 -Arg-vasopressin and a test compound (100 ng, 10^-7 -10^-4 M) are incubated at 37° C. for 10 minutes in 100 mM Tris-HCl buffer pH: 8.0 (250 μl) containing 5 mM MgCl2, 1 mM EDTA and 0.1% BSA. After incubation, the mixture is filtered three times using the glass filter (GF/F) so as to separate the membrane preparation combining with vasopressin and then washed with the buffer (5 ml). This glass filter is taken out and mixed with liquid scintillation cocktail. The amount of [H]^3 -vasopressin combining with the membrane is measured by liquid scintillation counter and the rate of the inhibitory effect of the test compound is estimated according to the following equation. [formula] C^1 : The amount of [H]^3 -vasopressin combining with the membrane in the presence of the test compound (known amount).
C^0 : The amount of [H]^3 -vasopressin combining with the membrane in the absence of the test compound.
B^1 : The amount of [H]^3 -vasopressin combining with the membrane in the presence of the excess amount of vasopressin (10^-6 M).

Chain of V1 receptor (P30560 whole entry): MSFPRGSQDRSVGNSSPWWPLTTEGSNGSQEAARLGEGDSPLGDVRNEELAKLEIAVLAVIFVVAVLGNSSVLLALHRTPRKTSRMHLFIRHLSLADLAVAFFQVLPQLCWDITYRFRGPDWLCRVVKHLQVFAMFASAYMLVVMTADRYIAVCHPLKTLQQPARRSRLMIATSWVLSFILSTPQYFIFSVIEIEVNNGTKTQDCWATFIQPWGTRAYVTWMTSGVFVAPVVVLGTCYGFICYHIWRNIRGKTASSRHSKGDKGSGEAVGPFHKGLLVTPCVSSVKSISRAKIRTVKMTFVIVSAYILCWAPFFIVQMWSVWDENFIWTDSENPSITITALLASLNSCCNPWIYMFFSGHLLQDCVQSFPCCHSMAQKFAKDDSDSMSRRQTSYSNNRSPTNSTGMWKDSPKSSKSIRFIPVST

Structure (SMILES) | IC50 | IC50 (read-out: IC50)
CC(=O)OCCCCc1ccc(C(=O)N2CCC(N3C(=O)CCc4ccccc43)CC2)cc1 [Example 124, 1-{1-[4-(4-Acetoxybutyl)benzoyl]-4-piperidinyl}-3,4-dihydrocarbostyril] | 320 nM | –
O=C(c1ccc(OCCCCn2cccc2)cc1)N1CCC(N2C(=O)CCc3ccccc32)CC1 [Example 125, 1-[1-{4-[4-(1-pyrrolyl)butoxy]benzoyl}-4-piperidinyl]-3,4-dihydrocarbostyril] | 590 nM | –
CNc1ccc(C(=O)NCCCCOc2ccc(C(=O)N3CCC(N4C(=O)CCc5ccccc54)CC3)cc2)cc1 [Example 126, 1-[1-{4-[(4-Methylaminobenzoyl)aminobutoxy]-benzoyl}-4-piperidinyl]-3,4-dihydrocarbostyril] | 360 nM | –
CC[S+]([O-])CCCOc1ccc(C(=O)N2CCC(N3C(=O)CCc4ccccc43)CC2)cc1 (stereo not drawn) [Example 127, 1-{1-[4-(Ethylsulfinylpropoxy)benzoyl]-4-piperidinyl}-3,4-dihydrocarbostyril] | 610 nM | –
O=C(c1ccc(OCCCCCCO)cc1)N1CCC(N2C(=O)CCc3ccccc32)CC1 [Example 128, 1-{1-[4-(6-Hydroxyhexyloxy)benzoyl]-4-piperidinyl}-3,4-dihydrocarbostyril] | 230 nM | –
NC(=O)OCCCCCOc1ccc(C(=O)N2CCC(N3C(=O)CCc4ccccc43)CC2)cc1 [Example 129, 1-{1-[4-(5-Carbamoyloxypentyloxy)benzoyl]-4-piperidinyl}-3,4-dihydrocarbostyril] | 180 nM | –
CC(=O)OCCCCCCOc1ccc(C(=O)N2CCC(N3C(=O)CCc4ccccc43)CC2)cc1 [Example 130, 1-{1-[4-(6-Acetoxyhexyloxy)benzoyl]-4-piperidinyl}-3,4-dihydrocarbostyril] | 390 nM | –
CN(C)CC(O)CCCCOc1ccc(C(=O)N2CCC(N3C(=O)CCc4ccccc43)CC2)cc1 (stereo not drawn) [Example 131, 1-{1-[4-(6-Dimethylamino-5-hydroxyhexyloxy)benzoyl]-4-piperidinyl}-3,4-dihydrocarbostyril] | 66 nM | –
O=C(c1ccc(OCCCN2CCNCC2)cc1)N1CCC(N2C(=O)CCc3ccccc32)CC1 [Example 132, 1-[1-{4-[3-(1-piperazinyl)propoxy]benzoyl}-4-piperidinyl]-3,4-dihyrocarbostyril.dihydrochloride.trihydrate] | 160 nM | –
O=C(c1ccc(OCCCN2CCN(Cc3ccccc3)CC2)cc1)N1CCC(N2C(=O)CCc3ccccc32)CC1 [Example 133, 1-[1-{4-[3-(4-Benzyl-1-piperazinyl)propoxy]benzoyl}-4-piperidinyl]-3,4-dihydrocarbostyril.dioxalate] | 330 nM | –
CC(=O)N1CCN(CCCOc2ccc(C(=O)N3CCC(N4C(=O)CCc5ccccc54)CC3)cc2)CC1 [Example 134, 1-[1-{4-[3-(4-Acetyl-1-piperazinyl)propoxy]-benzoyl}-4-piperidinyl]-3,4-dihydrocarbostyril] | 160 nM | –
O=C(Nc1ccccc1)N1CCN(CCCOc2ccc(C(=O)N3CCC(N4C(=O)CCc5ccccc54)CC3)cc2)CC1 [Example 135, 1-[1-{4-[3-(4-Anilinocarbonyl-1-piperazinyl)propoxy]benzoyl}-4-piperidinyl]-3,4-dihydrocarbostyril] | 200 nM | –
CN1CCN(CCCOc2ccc(C(=O)N3CCC(N4C(=O)CCc5ccccc54)CC3)cc2)CC1 [Example 136, 1-[1-{4-[3-(4-Methyl-1-piperazinyl)propoxy]benzoyl}-4-piperidinyl]-3,4-dihydrocarbostyril.dioxalate] | 180 nM | –
O=C(CN1CCN(CCCOc2ccc(C(=O)N3CCC(N4C(=O)CCc5ccccc54)CC3)cc2)CC1)c1ccccc1 [Example 137, 1-[1-{4-[3-(4-Benzoylmethyl-1-piperazinyl)propoxy]benzoyl}-4-piperidinyl]-3,4-dihydrocarbostyril.dioxalate] | 120 nM | –
O=C(c1ccc(OCCCN2CCN(CC(O)c3ccccc3)CC2)cc1)N1CCC(N2C(=O)CCc3ccccc32)CC1 (stereo not drawn) [Example 138, 1-{1-[4-{3-[4-(2-Phenyl-2-hydroxyethyl)-1-piperazinyl]propoxy}benzoyl]-4-piperidinyl}-3,4-dihydrocarbostyril.dioxalate] | 240 nM | –
CCOc1ccc(C(=O)N2CCC(N3C(=O)CCc4c(F)cc(F)cc43)CC2)c(OC)c1 [Example 139, 5,7-Difluoro-1-[1-(2-methoxy-4-ethoxybenzoyl)-4-piperidinyl]-3,4-dihydrocarbostyril] | 51 nM | –
CS(=O)(=O)NCCCCCCOc1ccc(C(=O)N2CCC(N3C(=O)CCc4ccccc43)CC2)cc1 [Example 142, 1-{1-[4-(6-Methylsulfonylaminohexyloxy)benzoyl]-4-piperidinyl}-3,4-dihydrocarbostyril] | 100 nM | –
CCS(=O)(=O)CCCOc1ccc(C(=O)N2CCC(N3C(=O)CCc4ccccc43)CC2)cc1 [Example 143, 1-{1-[4-(3-Ethylsulfonylpropoxy)benzoyl]-4-piperidinyl}-3,4-dihydrocarbostyril] | 550 nM | –

Structure (SMILES) | IC50 | IC50 (read-out: IC50)
CCN(CC)CC(O)CCCCOc1ccc(C(=O)N2CCC(N3C(=O)CCc4ccccc43)CC2)cc1 (stereo not drawn) [Example 144, 1-{1-[4-(6-Diethylamino-5-hydroxyhexyloxy)benzoyl]-4-piperidinyl}-3,4-dihydrocarbostyril] | 22 nM | –
O=CNCCCOc1ccc(C(=O)N2CCC(N3C(=O)CCc4ccc(F)cc43)CC2)cc1 [Example 145, 1-{1-[4-(3-Formylaminopropoxy)benzoyl]-4-piperidinyl}-7-fluoro-3,4-dihydrocarbostyril] | 170 nM | –
NC(=O)[C@H](Cc1ccc(O)cc1)NC(=O)CCCCCOc1ccc(C(=O)N2CCC(N3C(=O)CCc4ccccc43)CC2)cc1 [Example 146, 1-{1-[4-{5-[1-(S)-Carbamoyl-2-(4-hydroxyphenyl)]ethylaminocarbonylpentyloxy}benzoyl]-4-piperidinyl}-3,4-dihydrocarbostyril] | 73 nM | –
CC(C)[C@H](NC(=O)CCCCCOc1ccc(C(=O)N2CCC(N3C(=O)CCc4ccccc43)CC2)cc1)C(N)=O [Example 147, 1-{1-[4-{5-[1-(S)-Carbamoyl-2-methyl]propylaminocarbonylpentyloxy}benzoyl]-4-piperidinyl}-3,4-dihydrocarbostyril] | 98 nM | –
CN(C)C(=O)CCCOc1ccc(C(=O)N2CCC(N3C(=O)CCc4ccccc43)CC2)cc1 [Example 148, 1-{1-[4-(3-Dimethylaminocarbonylpropoxy)benzoyl]-4-piperidinyl}-3,4-dihydrocarbostyril] | 360 nM | –
NC(=O)[C@H](Cc1c[nH]cn1)NC(=O)CCCCCOc1ccc(C(=O)N2CCC(N3C(=O)CCc4ccccc43)CC2)cc1 [Example 149, 1-{1-[4-{5-[1-(S)-Carbamoyl-2{4(1H)-imidazoyl}]ethylaminocarbonylpentyloxy)benzoyl]-4-piperidinyl}-3,4-dihydrocarbostyril] | 150 nM | –
NC(=O)CC[C@H](NC(=O)CCCCCOc1ccc(C(=O)N2CCC(N3C(=O)CCc4ccccc43)CC2)cc1)C(N)=O [Example 150, 1-{1-[4-(5-[1-(S),3-Dicarbamoyl]propylaminocarbonylpentyloxy)benzoyl]-4-piperidinyl}-3,4-dihydrocarbostyril] | 96 nM | –
CCOc1ccc(C(=O)N2CCC(n3c(=O)ccc4ccc(F)cc43)CC2)c(OC)c1 [Example 151, 1-[1-(2-Methoxy-4-ethoxybenzoyl)-4-piperidinyl]-7-fluorocarbostyril] | – | 160 nM
CCOc1ccc(C(=O)N2CCC(N3C(=O)C(C(=O)O)Cc4ccccc43)CC2)c(OC)c1 (stereo not drawn) [Example 152, 1-[1-(2-Methoxy-4-ethoxybenzoyl)-4-piperidinyl]-3-carboxy-3,4-dihydrocarbostyril] | 1600 nM | –
CSCC[C@H](NC(=O)CCCCCOc1ccc(C(=O)N2CCC(N3C(=O)CCc4ccccc43)CC2)cc1)C(N)=O [Example 153, 1-{1-[4-(5-[1-(S)-Carbamoyl-3-(methylthio)]propylaminocarbonylpentyloxy)benzoyl]-4-piperidinyl}-3,4-dihydrocarbostyril] | 84 nM | –
O=C(CCCCCOc1ccc(C(=O)N2CCC(N3C(=O)CCc4ccccc43)CC2)cc1)c1nc2cnccc2[nH]1 [Example 154, 1-{1-[4-(5-(Imidazo[4,5-c]pyridine-2-yl)carbonylpentyloxy)benzoyl]-4-piperidinyl}-3,4-dihydrocarbostyril] | 200 nM | –
CCOc1ccc(C(=O)N2CCC(N3C(=O)CCc4ccc(F)cc43)CC2)c(O)c1 [Example 155, 1-[1-(2-Hydroxy-4-ethoxybenzoyl)-4-piperidinyl]-7-fluoro-3,4-dihydrocarbostyril] | 57 nM | –
O=C(c1ccc(OCCCCN2CCN(Cc3ccccc3)CC2)cc1)N1CCC(N2C(=O)CCc3ccccc32)CC1 [Example 156, 1-{1-[4-[(4-Benzyl-1-piperazinyl)butoxy]benzoyl]-4-piperidinyl}-3,4-dihydrocarbostyril] | 180 nM | –
O=C(c1ccc(OCCCCN2CCNCC2)cc1)N1CCC(N2C(=O)CCc3ccccc32)CC1 [Example 157, 1-{1-[4-[4-(1-Piperazinyl)butoxy]benzoyl]-4-piperidinyl}-3,4-dihydrocarbostyril.dioxalate] | 90 nM | –
CN1CCN(CCCCOc2ccc(C(=O)N3CCC(N4C(=O)CCc5ccccc54)CC3)cc2)CC1 [Example 158, 1-{1-[4-[4-(4-Methyl-1-piperazinyl)butoxy]benzoyl]-4-piperidinyl}-3,4-dihydrocarbostyril.dioxalate] | 100 nM | –
CS(=O)(=O)N1CCN(CCCCOc2ccc(C(=O)N3CCC(N4C(=O)CCc5ccccc54)CC3)cc2)CC1 [Example 159, 1-{1-[4-[4-(4-Methylsulfonyl-1-piperazinyl)butoxy]benzoyl]-4-piperidinyl}-3,4-dihydrocarbostyril] | 98 nM | –
COC(=O)N1CCN(CCCCOc2ccc(C(=O)N3CCC(N4C(=O)CCc5ccccc54)CC3)cc2)CC1 [Example 160, 1-{1-[4-[4-(4-Methoxycarbonyl-1-piperazinyl)butoxy]benzoyl]-4-piperidinyl}-3,4-dihydrocarbostyril] | 220 nM | –
O=C(OCCCCOc1ccc(C(=O)N2CCC(N3C(=O)CCc4ccccc43)CC2)cc1)N1CCN(Cc2ccccc2)CC1 [Example 161, 1-{1-[4-[4-(4-Benzyl-1-piperazinyl)carbonyloxybutoxy]benzoyl]-4-piperidinyl}-3,4-dihydrocarbostyril] | 450 nM | –
